Reference: patent publication US4081548A, “Antibiotics” (Merck & Co., Inc., priority 1976, dated 1978)

Tests used:
Assay type in all cases: cell-based
[1] = tested on: Bacillus subtilis 964; test: Bauer-Kirby disc diffusion (2 mm agar depth), zone of inhibition, Table 1; settings: preparation III, 6.6 μg antibiotic/disc, strain resistance: --, read-out: diameter of the zone of inhibition
Source text: (§1) Thienamycin is further characterized by the following antibiotic spectrum profile. The test employs the Bauer-Kirby disc diffusion method modified only in respect to the 2 mm. agar depth employed here.

[2] = tested on: Enterobacter cloacae 2646; test: as above; settings: preparation III, 6.6 μg antibiotic/disc, strain resistance: P, C (penicillins, cephalosporins), read-out: diameter of the zone of inhibition
Source text: as §1

[3] = tested on: Enterobacter cloacae 2647; test: as above; settings: preparation III, 6.6 μg antibiotic/disc, strain resistance: --, read-out: diameter of the zone of inhibition
Source text: as §1

[4] = tested on: Escherichia coli 2017; test: as above; settings: preparation III, 6.6 μg antibiotic/disc, strain resistance: --, read-out: diameter of the zone of inhibition
Source text: as §1

[5] = tested on: Escherichia coli 2482; test: as above; settings: preparation III, 6.6 μg antibiotic/disc, strain resistance: --, read-out: diameter of the zone of inhibition
Source text: as §1

[6] = tested on: Escherichia coli 2964; test: as above; settings: preparation III, 6.6 μg antibiotic/disc, strain resistance: P, C (penicillins, cephalosporins), read-out: diameter of the zone of inhibition
Source text: as §1

[7] = tested on: Klebsiella 2921; test: as above; settings: preparation III, 6.6 μg antibiotic/disc, strain resistance: P (penicillins), read-out: diameter of the zone of inhibition
Source text: as §1

[8] = tested on: Klebsiella 2922; test: as above; settings: preparation III, 6.6 μg antibiotic/disc, strain resistance: P (penicillins), read-out: diameter of the zone of inhibition
Source text: as §1

[9] = tested on: Proteus mirabilis 2830; test: as above; settings: preparation III, 6.6 μg antibiotic/disc, strain resistance: P, C (penicillins, cephalosporins), read-out: diameter of the zone of inhibition
Source text: as §1

[10] = tested on: Proteus morganii 2833; test: as above; settings: Morganella morganii, preparation III, 6.6 μg antibiotic/disc, strain resistance: P, C (penicillins, cephalosporins), read-out: diameter of the zone of inhibition
Source text: as §1

[11] = tested on: Pseudomonas aeruginosa 2616; test: as above; settings: preparation III, 6.6 μg antibiotic/disc, strain resistance: P, C (penicillins, cephalosporins), read-out: diameter of the zone of inhibition
Source text: as §1

[12] = tested on: Pseudomonas aeruginosa 2824; test: as above; settings: preparation III, 6.6 μg antibiotic/disc, strain resistance: P, C (penicillins, cephalosporins), read-out: diameter of the zone of inhibition
Source text: as §1

[13] = tested on: Pseudomonas aeruginosa 3210; test: as above; settings: preparation III, 6.6 μg antibiotic/disc, strain resistance: P, C (penicillins, cephalosporins), read-out: diameter of the zone of inhibition
Source text: as §1

[14] = tested on: Serratia 2840; test: as above; settings: preparation III, 6.6 μg antibiotic/disc, strain resistance: P, C (penicillins, cephalosporins), read-out: diameter of the zone of inhibition
Source text: as §1

[15] = tested on: Staphylococcus aureus 2314; test: as above; settings: preparation III, 6.6 μg antibiotic/disc, strain resistance: P (penicillins), read-out: diameter of the zone of inhibition
Source text: as §1

[16] = tested on: Staphylococcus aureus 2985; test: as above; settings: preparation III, 6.6 μg antibiotic/disc, strain resistance: --, read-out: diameter of the zone of inhibition
Source text: as §1

[17] = tested on: Streptococcus faecalis 755; test: as above; settings: Enterococcus faecalis, preparation III, 6.6 μg antibiotic/disc, strain resistance: --, read-out: diameter of the zone of inhibition
Source text: as §1

[18] = tested on: Staphylococcus aureus ATCC 6538P; test: disc-diffusion assay of antibacterial activity (5 ml plates); settings: estimated or calculated potency; one unit = same inhibition as 1 μg. of cephalothin/ml.
Protocol: Assays of antibacterial activity are run according to the following disc-diffusion procedure unless otherwise indicated. The assay plates are prepared in the following manner. An overnight growth of the assay organism, Staphylococcus aureus ATCC 6538P, in nutrient broth plus 0.2% yeast extract is diluted with nutrient broth plus 0.2% yeast extract to a suspension having 55% transmittance at a wavelength of 660 mμ. This suspension is added to Difco nutrient agar supplemented with 2.0 g./l. Difco yeast extract, at 47° C. to 48° C., to make a composition containing 33.2 ml. of the suspension per liter of agar. Five ml. of this suspension is poured into petri dishes of 85 mm. diameter, and these plates are chilled and held at 4° C. until used (5 day maximum).
Samples of the antibiotic to be assayed are diluted to an appropriate concentration in phosphate buffer at pH 7. Filter-paper discs, 0.5-inch in diameter, are dipped into the test solution and placed on the surface of the assay plate; two discs for each sample are normally placed on one plate opposite to one another. The plates are incubated overnight at 37° C. and the zone of inhibition is measured as mm. diameter. The zone of inhibition measured in mm. determines relative potencies or, when compared with a purified reference standard such as cephalothin, the potency of antibiotic in units/ml. The unit of activity reported in Examples 4 through 7 is based on cephalothin standard solutions of 8, 4, 2 and 1 μg./ml. One unit is defined as the amount which calculates to produce the same inhibition as 1 μg. of cephalothin/ml. that zone of inhibition being between 16 and 21 mm. diameter.

C[C@@H](O)[C@H]1C(=O)N2C(C(=O)O)=C(SCCN)C[C@H]12 [III, thienamycin]
zone of inhibition at 6.6 µg/disc [1]: 46 mm | zone of inhibition at 6.6 µg/disc [2]: 25 mm | zone of inhibition at 6.6 µg/disc [3]: 27.5 mm | zone of inhibition at 6.6 µg/disc [4]: 28 mm | zone of inhibition at 6.6 µg/disc [5]: 27 mm | zone of inhibition at 6.6 µg/disc [6]: 27 mm | zone of inhibition at 6.6 µg/disc [7]: 25 mm | zone of inhibition at 6.6 µg/disc [8]: 25 mm | zone of inhibition at 6.6 µg/disc [9]: 21 mm | zone of inhibition at 6.6 µg/disc [10]: 20 mm | zone of inhibition at 6.6 µg/disc [11]: 20.5 mm | zone of inhibition at 6.6 µg/disc [12]: 30 mm | zone of inhibition at 6.6 µg/disc [13]: 25 mm | zone of inhibition at 6.6 µg/disc [14]: 23 mm | zone of inhibition at 6.6 µg/disc [15]: 38 mm | zone of inhibition at 6.6 µg/disc [16]: 38 mm | zone of inhibition at 6.6 µg/disc [17]: 24 mm | potency (estimated / calculated) [18]: ~31,000 units/mg.
